Laboratory results published in patent publication US20100216779A1 (GLAXOSMITHKLINE LLC, priority 2007, published 2010).

Legend:
[1] = test system: Colo-205 tumors (colon carcinoma cell line); test: In vivo efficacy, Colo-205 tumor bearing mice; design: species or system mouse
Method: In addition to the LISN xenograft efficacy studies, Example 57 has also been assessed in vivo in two other mouse models of cancer, including: Colo-205 tumor bearing mice (colon carcinoma cell line) and BT474 tumor bearing mice (breast carcinoma cell line). Forty female nude mice bearing Colo-205 tumors (average tumor size of 200 mm3) were randomized into five groups of eight mice and dosed with either vehicle (20% SBE pH3.5) or Example 57 at 100, 30, 10 mg/kg QD or 30 mg/kg BID for 21 days. The groups of mice dosed with the higher doses of Example 57 (100 mg/kg QD and 30 mg/kg BID) lost greater than 20% body weight within 10 days of dosing so were taken off the study and allowed to recover. […] The higher doses of 100 mg/kg QDx10 and 30 mg/kg BIDx10 achieved 72 and 49% tumor growth inhibition respectively.

[2] = test system: COLO205 (colon); test: Inhibition of cell proliferation, CellTiter-Glo, COLO205; assay type: cell-based; conditions: Homo sapiens, COLO 205, 72 h
Method in brief: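 Exponentially growing COLO205 cells in medium with 10% FBS were plated below 2000 cells/well at 37 °C, 5% CO2. Untreated wells served as controls.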

[3] = target: T1, IR (NIH-3T3 cells over expressing human IGF-1R or IR) (Homo sapiens, UniProt P06213); test: IR cellular autophosphorylation (DELFIA); assay type: cell-based; conditions: NIH-3T3 cells over expressing IR, insulin stimulated
T1 construct: expressed in transfected cells; host or cells: NIH-3T3 (mouse fibroblasts)
T1 sequence (P06213 28-1382): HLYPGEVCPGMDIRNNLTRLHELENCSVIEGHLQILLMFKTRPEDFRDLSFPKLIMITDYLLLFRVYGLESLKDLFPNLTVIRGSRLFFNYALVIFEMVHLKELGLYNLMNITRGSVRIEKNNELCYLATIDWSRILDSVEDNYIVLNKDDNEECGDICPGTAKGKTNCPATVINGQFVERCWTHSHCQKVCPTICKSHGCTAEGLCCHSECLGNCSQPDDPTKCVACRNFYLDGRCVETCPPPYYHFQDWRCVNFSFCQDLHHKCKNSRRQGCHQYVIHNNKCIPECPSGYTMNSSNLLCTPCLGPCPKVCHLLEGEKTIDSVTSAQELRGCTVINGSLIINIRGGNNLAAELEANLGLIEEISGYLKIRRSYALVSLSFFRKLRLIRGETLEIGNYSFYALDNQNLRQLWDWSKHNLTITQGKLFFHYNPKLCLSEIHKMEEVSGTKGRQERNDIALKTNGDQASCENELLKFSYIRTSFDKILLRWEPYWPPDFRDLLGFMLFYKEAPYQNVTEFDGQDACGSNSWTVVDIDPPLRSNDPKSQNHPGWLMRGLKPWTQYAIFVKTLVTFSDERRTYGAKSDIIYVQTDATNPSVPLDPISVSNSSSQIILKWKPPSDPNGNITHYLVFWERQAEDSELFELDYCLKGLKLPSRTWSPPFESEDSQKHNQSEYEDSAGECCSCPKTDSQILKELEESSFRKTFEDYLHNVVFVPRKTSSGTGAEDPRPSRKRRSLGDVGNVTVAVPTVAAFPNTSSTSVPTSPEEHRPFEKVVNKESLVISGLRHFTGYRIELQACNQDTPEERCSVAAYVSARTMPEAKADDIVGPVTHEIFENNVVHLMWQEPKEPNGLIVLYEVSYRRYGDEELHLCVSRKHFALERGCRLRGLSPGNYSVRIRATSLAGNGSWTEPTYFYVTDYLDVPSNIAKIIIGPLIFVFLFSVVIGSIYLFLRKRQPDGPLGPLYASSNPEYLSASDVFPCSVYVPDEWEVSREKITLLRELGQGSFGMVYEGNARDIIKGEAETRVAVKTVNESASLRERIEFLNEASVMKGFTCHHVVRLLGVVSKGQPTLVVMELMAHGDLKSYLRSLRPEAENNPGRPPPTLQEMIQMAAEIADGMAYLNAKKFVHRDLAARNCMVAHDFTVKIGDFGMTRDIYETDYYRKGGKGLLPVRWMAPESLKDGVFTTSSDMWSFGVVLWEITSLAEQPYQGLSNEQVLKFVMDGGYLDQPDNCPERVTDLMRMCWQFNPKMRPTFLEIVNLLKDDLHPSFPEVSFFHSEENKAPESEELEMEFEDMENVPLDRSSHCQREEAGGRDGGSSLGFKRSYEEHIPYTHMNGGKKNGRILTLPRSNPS
Method in brief: (§1)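 Read-out: DELFIA on lysates, receptor-specific capture antibody plus europium-labelled anti-phosphotyrosine, reported as % of IGF-1- or insulin-stimulated signal. Transfected NIH-3T3 cells got compound (30 uM–1.5 nM, 2 h) before a 15 min ligand pulse: IGF-1 30 ng/mL for IGF-1R, insulin 3 ug/mL for IR.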

[4] = test system: NCI-H929 (multiple myeloma); test: Inhibition of cell proliferation, CellTiter-Glo, NCI-H929; assay type: cell-based; conditions: Homo sapiens, 72 h
Method in brief: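 Cells were grown in medium with 10% FBS at 37° C, 5% CO2. Cell number was read as CellTiter-Glo luminescence (cellular ATP), with untreated wells as control.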

[5] = target: T2, human IGF-1R (NIH-3T3 cells over expressing human IGF-1R) (Homo sapiens, UniProt P08069); test: IGF-1R cellular autophosphorylation (DELFIA); assay type: cell-based; conditions: IGF-1 stimulated
T2 construct: expressed in transfected cells; host or cells: NIH-3T3 (mouse fibroblasts)
T2 sequence (P08069 31-1367): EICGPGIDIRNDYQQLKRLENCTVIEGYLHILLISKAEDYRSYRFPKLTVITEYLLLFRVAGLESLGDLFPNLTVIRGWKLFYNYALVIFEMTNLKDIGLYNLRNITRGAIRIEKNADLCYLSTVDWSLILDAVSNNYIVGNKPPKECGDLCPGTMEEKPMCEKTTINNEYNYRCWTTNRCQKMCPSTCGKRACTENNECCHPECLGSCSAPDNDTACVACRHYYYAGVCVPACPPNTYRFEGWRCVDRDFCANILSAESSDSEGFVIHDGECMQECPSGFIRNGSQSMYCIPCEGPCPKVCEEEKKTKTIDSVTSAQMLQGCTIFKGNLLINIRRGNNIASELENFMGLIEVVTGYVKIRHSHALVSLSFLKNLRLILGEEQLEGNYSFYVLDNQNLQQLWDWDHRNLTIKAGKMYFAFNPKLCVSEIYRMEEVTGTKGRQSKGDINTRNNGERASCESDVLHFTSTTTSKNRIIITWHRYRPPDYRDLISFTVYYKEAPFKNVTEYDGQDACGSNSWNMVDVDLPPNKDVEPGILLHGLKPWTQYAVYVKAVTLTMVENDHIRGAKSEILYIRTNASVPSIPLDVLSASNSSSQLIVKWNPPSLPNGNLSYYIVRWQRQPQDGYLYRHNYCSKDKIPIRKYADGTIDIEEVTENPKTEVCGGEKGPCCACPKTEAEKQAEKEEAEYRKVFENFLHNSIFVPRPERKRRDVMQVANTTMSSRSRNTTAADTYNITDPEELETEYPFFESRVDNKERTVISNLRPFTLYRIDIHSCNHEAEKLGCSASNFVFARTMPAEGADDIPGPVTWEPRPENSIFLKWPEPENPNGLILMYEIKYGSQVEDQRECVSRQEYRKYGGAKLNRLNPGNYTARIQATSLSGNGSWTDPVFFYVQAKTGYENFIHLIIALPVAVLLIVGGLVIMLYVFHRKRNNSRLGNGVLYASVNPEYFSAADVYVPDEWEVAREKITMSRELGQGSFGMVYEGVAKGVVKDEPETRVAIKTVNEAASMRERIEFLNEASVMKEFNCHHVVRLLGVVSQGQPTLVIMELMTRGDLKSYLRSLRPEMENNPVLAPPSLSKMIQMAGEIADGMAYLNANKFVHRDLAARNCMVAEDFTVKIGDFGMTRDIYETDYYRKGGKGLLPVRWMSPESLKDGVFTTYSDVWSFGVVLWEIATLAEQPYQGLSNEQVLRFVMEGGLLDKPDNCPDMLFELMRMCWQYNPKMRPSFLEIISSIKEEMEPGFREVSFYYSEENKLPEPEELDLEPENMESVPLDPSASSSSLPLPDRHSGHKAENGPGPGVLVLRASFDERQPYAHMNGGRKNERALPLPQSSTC
Method in brief: as §1

Row | IC50 [2] [nM] | IC50 [3] [nM] | IC50 [4] [nM] | IC50 [5] [nM] | SMILES | tumor growth inhibition ([1]; Colo-205, 10 mg/kg QDx21) [%] | tumor growth inhibition ([1]; Colo-205, 30 mg/kg BIDx10) [%] | tumor growth inhibition ([1]; Colo-205, 30 mg/kg QDx21) [%] | body weight lost ([1]; Colo-205, 100 mg/kg QD and 30 mg/kg BID, within 10 days of dosing) | tumor growth inhibition ([1]; Colo-205, 100 mg/kg QDx10) [%] | body weight loss ([1]; Colo-205, 30 and 10 mg/kg QDx21)
1 | 250 to 1000 | < 100 | < 250 | < 100 | COc1cc(N2CCC(N3CCN(CCF)CC3)CC2)ccc1Nc1nccc(-c2c(-c3cccc(C(=O)Nc4c(F)cccc4F)c3)nc3ccccn23)n1 [Example 57, N-(2,6-difluorophenyl)-3-[3-(2-{[4-{4-[4-(2-fluoroethyl)-1-piperazinyl]-1-piperidinyl}-2-(methyloxy)phenyl]amino}-4-pyrimidinyl)imidazo[1,2-a]pyridin-2-yl]benzamide] | 17 | 49 | 40 | greater than 20% | 72 | no body weight loss
2 | 250 to 1000 | < 100 | < 250 | < 100 | COc1cc(N2CCC(N3CCCCC3)CC2)ccc1Nc1nccc(-c2c(-c3cccc(C(=O)Nc4c(F)cccc4F)c3)nc3ccccn23)n1 [Example 22, 3-[3-(2-{[4-(1,4′-bipiperidin-1′-yl)-2-(methyloxy)phenyl]amino}-4-pyrimidinyl)imidazo[1,2-a]pyridin-2-yl]-N-(2,6-difluorophenyl)benzamide] | – | – | – | – | – | –
